Source: patent publication US6613572B2, “Agent for expression of long-term potentiation of synaptic transmission comprising compound having brain somatostatin activation property” (priority 1999, dated 2003)

Legend:
[1] = tested on: voltage-dependent calcium channel of hippocampus pyramidal cell; assay: Effect of somatostatin and compound 1 on voltage-dependent Ca2+ current of rat hippocampus pyramidal cell; format: cell-based; settings: compound 1 10^-7 M plus somatostatin 10^-7 M
Procedure: Hippocampal slices were prepared from the brains of 5- to 14-day-old male Wistar rats and the nerve cells were quickly isolated by trypsin enzyme treatment method. According to the whole cell patch-clamp method, the membrane potential of hippocampus pyramidal cell was fixed at −80 mV and the membrane potential-dependent […] current (Ica) was measured in Cs^+ electrode inner solution and Ba^2+ bath outer solution. The resistance of the electrode was 2-4 MΩ. Compound 1 was added to bath outer solution concentrations of 0.01 μM, 0.1 μM and 1.0 μM, respectively, and perfused with the bath outer solution. Nothing was added to the bath outer solution for the control group. The maximal value of the current (peak amplitude) was measured, and calculated as the variation (%) relative to the value before addition of compound 1. Each value (%) was expressed by mean±S.E.M. The number of measurements was 7. The property of compound 1 was evaluated by Dunnett's multiple comparison test relative to the control group. […]

[2] = tested on: rat hippocampal slice; assay: Somatostatin release from rat hippocampal slice upon high K+ (50 mM) stimulation, radioimmunoassay; format: cell-based; settings: property significant at 10^-7 M and 10^-6 M vs control (Dunnett)
Procedure: Rat hippocampal slices (thickness 350 μm, round slice) were prepared by a standard method. Twenty rat hippocampal slices were placed in a perfusion chamber, incubated at 37° C. and perfused by a batch method while exchanging the incubation buffer every 10 minutes. The incubation buffer used had the composition as noted below. A mixed gas of oxygen (95%) and carbon dioxide (5%) was used to saturate the buffer. Composition of incubation buffer: NaCl, 124 mM; KCl, 5 mM; KH2PO4, 1.24 mM; MgSO4, 1.3 mM; CaCl2, 2.4 mM; NaHCO3, 26 mM; D-glucose, 10 mM
Perfusion for 150 minutes gave fractions 1-15. To fraction 9 was applied a high K^+ (50 mM) stimulation. Compound 1 was added to fractions 7-15 to the concentration of 10^−9 M, 10^−7 M, […], 10^−6 M, respectively. […] The respective fractions thus obtained were concentrated by lyophilization and somatostatin in the perfusate was quantified by radioimmunoassay (RIA). After the completion of the experiment, somatostatin remaining in the slices was extracted by a conventional method and quantified by radioimmunoassay. The somatostatin amount released by high K^+ (50 mM) stimulation was calculated and the amount of somatostatin released due to the property of compound 1 was measured.
Somatostatin release (%) by compound 1 at each concentration was calculated as in the following. […] The number of the test samples measured was 10 or 11. […]

[3] = tested on: voltage-dependent calcium channel of hippocampus pyramidal cells; assay: Voltage-dependent Ca2+ current of rat hippocampus pyramidal cell, whole cell patch-clamp; format: cell-based
Procedure: Hippocampal slices were prepared from the brains of 5- to 14-day-old male Wistar rats and the nerve cells were quickly isolated by trypsin enzyme treatment method. According to the whole cell patch-clamp method, the membrane potential of hippocampus pyramidal cell was fixed at −80 mV and the membrane potential-dependent […] current (Ica) was measured in Cs^+ electrode inner solution and Ba^2+ bath outer solution. The resistance of the electrode was 2-4 MΩ. Compound 1 was added to bath outer solution concentrations of 0.01 μM, 0.1 μM and 1.0 μM, respectively, and perfused with the bath outer solution. Nothing was added to the bath outer solution for the control group. The maximal value of the current (peak amplitude) was measured, and calculated as the variation (%) relative to the value before addition of compound 1. Each value (%) was expressed by mean±S.E.M. The number of measurements was 7. The property of compound 1 was evaluated by Dunnett's multiple comparison test relative to the control group.

[4] = tested on: mossy fiber-CA3 field pyramidal cell of hippocampal slice; assay: LTP in mossy fiber-CA3 field pyramidal cell of hippocampal slice, population spikes after tetanic stimulation; format: cell-based, guinea pig
Procedure: Slices (thickness 500 μm, round slice) were prepared from hippocampus removed from male Hartley guinea pigs (body weight 220-350 g) and population spikes were extracellularly recorded. The hippocampal slices were perfused with an artificial cerebrospinal fluid (33-34° C., composition: NaCl, 124 mM; KCl, 5 mM; KH2PO4, 1.24 mM; MgSO4, 1.3 mM; CaCl2, 2.4 mM; NaHCO3, 26 mM; D-glucose, 10 mM) saturated with a mixed gas of oxygen (95%) and carbon dioxide (5%) at flow rate of 1.8-2.0 ml/min. Mossy fiber was stimulated with a stimulating electrode at a voltage of not more than 10 V, frequency of 0.2 Hz and the population spikes in the CA3 field pyramidal cell layer was recorded every 5 minutes. When the population spikes to be recorded were stabilized, tetanic stimulation for induction of LTP was applied. The tetanic stimulation includes stimulation at the same voltage of not more than 10 V, as when the stimulation was applied at a frequency of 0.2 Hz, but upon increase of the frequency to 33 Hz for 5 seconds. The height of from negative peak to the next positive peak of the obtained population spikes after stimulation was measured and taken as an amplitude (population spike amplitude; PSA). The degree of LTP was expressed by a potential variation (%) by the increase in the amplitude of population spikes after tetanic stimulation relative to the average of 4 measurements of the amplitudes of population spikes obtained before tetanic stimulation. Each value was expressed by mean±S.E.M (the number of slices tested was 3 to 8). As the index of the property of a drug, the area (%·min) between the graph from 12 minutes to 62 minutes after tetanic stimulation and the line where the potential variation is 0%, in the time lapse graph of potential variation, was calculated and taken as the magnitude of LTP. Compound 1 was dissolved in and diluted with distilled water and added to perfusate to the concentration of 10^−9 M, 10^−8 M, 10^−7 M and 10^−6 M, respectively, and applied to a hippocmpal slice for […] from 2 minutes before the tetanic stimulation to 4 minutes thereafter. Nothing was added to perfusate for control group.
The property of compound 1 relative to the magnitude of LTP was tested by one-way analysis of variance and Dunnett's multiple comparison test.

## CC(=O)N1CCN(NC(=O)c2ccc(F)cc2)CC1.O [Compound 1, N-(4-acetyl-1-piperazinyl)-p-fluorobenzamide monohydrate]
[1]
  suppressive property of somatostatin on calcium current in the presence of compound 1: completely released
[2]
  somatostatin release (%): promoted somatostatin release
[3]; 0.01 μM, 0.1 μM and 1.0 μM, compared to control group, holding -80 mV
  membrane potential-dependent calcium current (variation of peak amplitude): significantly promoted
[3]; 0.01 to 1.0 μM
  shape of dose dependency of the calcium current promotion: bell-shape dose dependency
[4]; at 10^-7 M and 10^-6 M
  potential variation after tetanic stimulation (magnitude of LTP, 12 to 62 min): increased potential variation
[4]; before tetanic stimulation, compound applied to slice in perfusate
  response of base before tetanic stimulation (potential variation): no significant influence
[4]; cysteamine 200 mg/kg, compound 1 at 10^-7 M
  LTP enhancing property in hippocampal slice from guinea pig treated with cysteamine: did not show LTP enhancing property
[4]; tested at 10^-9 to 10^-6 M
  concentration at which the action on LTP was maximal: 10^−7 M
